Assay results taken from ChEMBL document CHEMBL1759980, “Aza-annulation on the 16-dehydropregnenolone, via tandem intermolecular aldol process and intramolecular Michael addition” (Bioorg Med Chem Lett, 2011).

Experiments:
Dipeptidyl peptidase 4 [1] = target: T1, Dipeptidyl peptidase 4 (Homo sapiens, UniProt P27487); assay: Inhibition of human DPP-4 assessed as cleavage of substrate using H-Gly-Pro-pNA chromogenic substrate after 10 mins by double beam spectrophotometer
Target sequence in this assay (P27487 whole entry): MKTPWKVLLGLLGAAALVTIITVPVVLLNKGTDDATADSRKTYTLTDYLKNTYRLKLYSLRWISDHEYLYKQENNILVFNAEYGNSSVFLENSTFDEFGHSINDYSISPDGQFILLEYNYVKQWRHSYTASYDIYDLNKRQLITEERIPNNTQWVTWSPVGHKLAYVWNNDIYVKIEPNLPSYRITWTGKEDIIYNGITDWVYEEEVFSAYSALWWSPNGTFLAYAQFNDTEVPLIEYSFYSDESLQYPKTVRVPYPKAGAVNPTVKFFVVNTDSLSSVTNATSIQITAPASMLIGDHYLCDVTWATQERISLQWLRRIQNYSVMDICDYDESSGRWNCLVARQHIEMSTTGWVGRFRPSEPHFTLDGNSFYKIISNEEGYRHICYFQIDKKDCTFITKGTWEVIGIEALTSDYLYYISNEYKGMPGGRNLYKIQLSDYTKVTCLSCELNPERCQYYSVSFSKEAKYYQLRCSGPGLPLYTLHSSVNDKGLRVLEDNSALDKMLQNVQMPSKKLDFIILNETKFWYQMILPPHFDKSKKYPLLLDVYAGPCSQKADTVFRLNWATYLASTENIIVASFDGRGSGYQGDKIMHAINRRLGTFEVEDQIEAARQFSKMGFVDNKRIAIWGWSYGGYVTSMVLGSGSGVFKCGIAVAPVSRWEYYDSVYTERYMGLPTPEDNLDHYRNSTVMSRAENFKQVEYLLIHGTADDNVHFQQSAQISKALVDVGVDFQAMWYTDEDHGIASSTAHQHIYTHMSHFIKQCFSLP

Dipeptidyl peptidase 4 [2] = target: T1, Dipeptidyl peptidase 4; assay: Inhibition of human DPP-4 assessed as cleavage of substrate using H-Gly-Pro-pNA chromogenic substrate at 10 uM after 10 mins by double beam spectrophotometer
Target sequence in this assay (P27487 whole entry, looked up): as the sequence (P27487 whole entry) above

Row | SMILES | IC50 (Dipeptidyl peptidase 4 [1]) | inhibition (Dipeptidyl peptidase 4 [2])
1 | CC(=O)O[C@H]1CC[C@@]2(C)C(=CC[C@@H]3[C@@H]2CC[C@]2(C)C(C(C)=O)=CC[C@@H]32)C1 | 35.6 µM | 17.3%
2 | CCCN1C(c2ccc(C(C)C)cc2)CC(=O)[C@H]2C1C[C@H]1[C@@H]3CC=C4C[C@@H](O)CC[C@]4(C)[C@H]3CC[C@]21C (stereo not given in full) | 29.1 µM | 19.1%
3 | COc1ccc(/C=C/C(=O)C2=CC[C@H]3[C@@H]4CC=C5C[C@@H](O)CC[C@]5(C)[C@H]4CC[C@]23C)cc1OC | 26.2 µM | 24.1%
4 | CCCN1C(c2ccc(OC)cc2)CC(=O)[C@H]2C1C[C@H]1[C@@H]3CC=C4C[C@@H](O)CC[C@]4(C)[C@H]3CC[C@]21C (stereo not given in full) | 32.7 µM | 20.4%
5 | CC(=O)[C@H]1C(NCc2ccccc2)C[C@H]2[C@@H]3CC=C4C[C@@H](O)CC[C@]4(C)[C@H]3CC[C@]12C (stereo not given in full) | 21.3 µM | 28.4%
